In US20120309750A1, “5-MEMBERED HETEROCYCLE DERIVATIVES AND MANUFACTURING PROCESS THEREOF” (ILDONG PHARM CO., LTD., priority 2010, published 2012):

Assays:
[1] = biological target: yeast HSP90 (Saccharomyces cerevisiae, UniProt P02829); assay: Hsp90 ATPase assay (malachite green); assay type: biochemical
Experimental: (§1) For present invention, the ATPase activity of yeast HSP90 was measured using malachite green assay. Formula I compounds for primary antitumoral activity were treated in human colorectal cancer cells (HCT116) showing increased expression levels of HSP90 client protein and cotoxicity IC50 values was measured as a result.

[2] = test system: human colorectal cancer cells (HCT116); assay: Growth inhibition assay (cytotoxicity) in HCT116; assay type: cell-based; settings: HCT-116
Experimental: as §1

Sequence of yeast HSP90 (P02829 whole entry): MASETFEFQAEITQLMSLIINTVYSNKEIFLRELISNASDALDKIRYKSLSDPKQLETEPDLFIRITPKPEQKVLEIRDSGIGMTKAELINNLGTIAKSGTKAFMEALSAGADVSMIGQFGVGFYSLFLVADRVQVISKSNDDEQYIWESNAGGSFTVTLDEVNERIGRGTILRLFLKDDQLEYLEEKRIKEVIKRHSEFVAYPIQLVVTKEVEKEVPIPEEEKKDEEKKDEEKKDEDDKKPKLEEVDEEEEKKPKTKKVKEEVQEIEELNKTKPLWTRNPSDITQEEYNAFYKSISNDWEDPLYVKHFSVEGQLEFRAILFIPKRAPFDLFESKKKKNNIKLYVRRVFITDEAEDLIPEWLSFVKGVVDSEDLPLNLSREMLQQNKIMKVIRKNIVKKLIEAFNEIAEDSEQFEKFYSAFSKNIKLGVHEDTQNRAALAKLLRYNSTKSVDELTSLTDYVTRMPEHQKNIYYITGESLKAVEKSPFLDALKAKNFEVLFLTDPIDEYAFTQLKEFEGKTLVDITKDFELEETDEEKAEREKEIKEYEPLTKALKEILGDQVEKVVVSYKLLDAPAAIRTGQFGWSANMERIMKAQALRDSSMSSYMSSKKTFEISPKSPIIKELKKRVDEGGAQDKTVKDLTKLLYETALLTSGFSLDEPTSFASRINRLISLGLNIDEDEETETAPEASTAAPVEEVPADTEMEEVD

| IC50 [1] [nM] | SMILES | IC50 [2] [nM] |
| --- | --- | --- |
| < 500 | CCNC(=O)c1noc(-c2cc(C(C)C)c(O)cc2O)c1-c1ccc(CN2CCOCC2)s1 [Compound I-1, 5-(2,4-Dihydroxy-5-isopropylphenyl)-N-ethyl-4-(5-(morpholinomethyl)thiophen-2-yl)isoxazole-3-carboxamide] | < 500 |
| > 1000 | CCNC(=O)c1noc(-c2cc(C(C)C)c(O)cc2O)c1-c1ccsc1CN1CCOCC1 [Compound I-2, 5-(2,4-Dihydroxy-5-isopropylphenyl)-N-ethyl-4-(2-(morpholinomethyl)thiophen-3-yl)isoxazole-3-carboxamide] | < 500 |
| > 1000 | CC(C)c1cc(-c2onc(CO)c2-c2ccsc2)c(O)cc1O [Compound I-3, 4-(3-(Hydroxymethyl)-4-(thiophen-3-yl)isoxazol-5-yl)-6-isopropylbenzene-1,3-diol] | > 1000 |
| > 1000 | CCC(=O)NCc1noc(-c2cc(C(C)C)c(O)cc2O)c1-c1ccsc1 [Compound I-4, N-((5-(2,4-Dihydroxy-5-isopropylphenyl)-4-(thiophen-3-yl)isoxazol-3-yl)methyl)propionamide] | > 1000 |
| > 1000 | CC(C)c1cc(-c2onc(Cn3ccnn3)c2-c2ccsc2)c(O)cc1O [Compound I-5, 4-(3-((1H-1,2,3-Triazol-1-yl)methyl)-4-(thiophen-3-yl)isoxazol-5-yl)-6-isopro pylbenzene-1,3-diol] | < 500 |
| > 1000 | CC(=O)NCc1noc(-c2cc(C(C)C)c(O)cc2O)c1-c1ccsc1 [Compound I-6, N-((5-(2,4-Dihydroxy-5-isopropylphenyl)-4-(thiophen-3-yl)isoxazol-3-yl)methyl)acetamide] | < 500 |
| 500 to 1000 | CCNC(=O)c1noc(-c2cc(C(C)C)c(O)cc2O)c1C1CC(C(=O)OCC)=NO1 (centres unmarked) [Compound I-7, Ethyl 5-(5-(2,4-dihydroxy-5-isopropylphenyl)-3-(ethylcarbamoyl)isoxazol-4-yl)-4,5-dihydroisoxazole-3-carboxylate] | 500 to 1000 |
| 500 to 1000 | CCNC(=O)C1=NOC(c2c(C(=O)NCC)noc2-c2cc(C(C)C)c(O)cc2O)C1 (centres unmarked) [Compound I-8, 5-(2,4-Dihydroxy-5-isopropylphenyl)-N-ethyl-4-(3-(ethylcarbamoyl)-4,5-dihydroisoxazol-5-yl)isoxazole-3-carboxamide] | < 500 |
| 500 to 1000 | CCNC(=O)c1noc(-c2cc(C(C)C)c(O)cc2O)c1C1CC(CO)=NO1 (centres unmarked) [Compound I-9, 5-(2,4-Dihydroxy-5-isopropylphenyl)-N-ethyl-4-(3-(hydroxymethyl)-4,5-dihydroisoxazol-5-yl)isoxazole-3-carboxamide] | < 500 |
| 500 to 1000 | CCNC(=O)c1noc(-c2cc(C(C)C)c(O)cc2O)c1-c1nnn[nH]1 [Compound I-10, 5-(2,4-Dihydroxy-5-isopropylphenyl)-N-ethyl-4-(1H-tetrazol-5-yl)isoxazole-3-carboxamide] | > 1000 |
| < 500 | CCNC(=O)c1noc(-c2cc(C(C)C)c(O)cc2O)c1-c1nnnn1C [Compound I-11, 5-(2,4-Dihydroxy-5-isopropylphenyl)-N-ethyl-4-(1-methyl-1H-tetrazol-5-yl)isoxazole-3-carboxamide] | < 500 |
| < 500 | CCNC(=O)c1noc(-c2cc(C(C)C)c(O)cc2O)c1-c1nnn(C)n1 [Compound I-12, 5-(2,4-Dihydroxy-5-isopropylphenyl)-N-ethyl-4-(2-methyl-2H-tetrazol-5-yl)isoxazole-3-carboxamide] | < 500 |
| < 500 | CCNC(=O)c1noc(-c2cc(C(C)C)c(O)cc2O)c1-c1nnnn1CC [Compound I-13, 5-(2,4-Dihydroxy-5-isopropylphenyl)-N-ethyl-4-(1-ethyl-1H-tetrazol-5-yl)isoxazole-3-carboxamide] | < 500 |
| < 500 | CCNC(=O)c1noc(-c2cc(C(C)C)c(O)cc2O)c1-c1nnn(CC)n1 [Compound I-14, 5-(2,4-Dihydroxy-5-isopropylphenyl)-N-ethyl-4-(2-ethyl-2H-tetrazol-5-yl)isoxazole-3-carboxamide] | < 500 |
| < 500 | CCNC(=O)c1noc(-c2cc(C(C)C)c(O)cc2O)c1-c1cc(C(=O)OCC)no1 [Compound I-15, Ethyl 5-(2,4-dihydroxy-5-isopropylphenyl)-3-(ethylcarbamoyl)-4,5′-biisoxazole-3′-carboxylate] | > 1000 |
| < 500 | CCNC(=O)c1cc(-c2c(C(=O)NCC)noc2-c2cc(C(C)C)c(O)cc2O)on1 [Compound I-16, 5-(2,4-Dihydroxy-5-isopropylphenyl)-N^3,N^3′-diethyl-4,5′-biisoxazole-3,3′-dicarboxamide] | < 500 |
| < 500 | CCNC(=O)c1noc(-c2cc(C(C)C)c(O)cc2O)c1-c1cc(CO)no1 [Compound I-17, 5-(2,4-Dihydroxy-5-isopropylphenyl)-N-ethyl-3′-(hydroxymethyl)-4,5′-biisoxazole-3-carboxamide] | < 500 |
| 500 to 1000 | CCNC(=O)c1noc(-c2cc(C(C)C)c(O)cc2O)c1-c1cc(CN2CCOCC2)no1 [Compound I-18, 5-(2,4-Dihydroxy-5-isopropylphenyl)-N-ethyl-3′-(morpholinomethyl)-4,5′-biisoxazole-3-carboxamide] | < 500 |
| < 500 | CCNC(=O)c1noc(-c2cc(C(C)C)c(O)cc2O)c1-c1cc(COCC(=O)OC)no1 [Compound I-19, Methyl 2-((5-(2,4-dihydroxy-5-isopropylphenyl)-3-(ethylcarbamoyl)-4,5′-biisoxazol-3′-yl)methoxy)acetate] | < 500 |
| < 500 | CCNC(=O)c1noc(-c2cc(C(C)C)c(O)cc2O)c1-c1cc(CN(CC)CC)no1 [Compound I-20, 3′-((Diethylamino)methyl)-5-(2,4-dihydroxy-5-isopropylphenyl)-N-ethyl-4,5′-biisoxazole-3-carboxamide] | < 500 |
| 500 to 1000 | CCNC(=O)c1noc(-c2cc(C(C)C)c(O)cc2O)c1-c1cc(C(N)=O)no1 [Compound I-21, 5-(2,4-Dihydroxy-5-isopropylphenyl)-N^3-ethyl-4,5′-biisoxazole-3,3′-dicarboxamide] | < 500 |
| 500 to 1000 | CCNC(=O)c1noc(-c2cc(C(C)C)c(O)cc2O)c1-c1cc(CNCCO)no1 [Compound I-22, 5-(2,4-Dihydroxy-5-isopropylphenyl)-N-ethyl-3′-((2-hydroxyethylamino)methyl)-4,5′-biisoxazole-3-carboxamide] | < 500 |
| 500 to 1000 | CCNC(=O)c1noc(-c2cc(C(C)C)c(O)cc2O)c1-c1cc(C(=O)N2CCOCC2)no1 [Compound I-23, 5-(2,4-Dihydroxy-5-isopropylphenyl)-N-ethyl-3′-(morpholine-4-carbonyl)-4,5′-biisoxazole-3-carboxamide] | < 500 |
| 500 to 1000 | CCNC(=O)c1noc(-c2cc(Cl)c(O)cc2O)c1-c1cc(CO)no1 [Compound I-24, 5-(5-Chloro-2,4-dihydroxyphenyl)-N-ethyl-3′-(hydroxymethyl)-4,5′-biisoxazole-3-carboxamide] | > 1000 |
| 500 to 1000 | CCNC(=O)c1noc(-c2cc(Cl)c(O)cc2O)c1-c1cc(C(=O)OCC)no1 [Compound I-25, Ethyl 5-(5-chloro-2,4-dihydroxyphenyl)-3-(ethylcarbamoyl)-4,5′-biisoxazole-3′-carboxylate] | > 1000 |
